From patent US10239903B2, “Pt (IV) derivatives and nanocarriers comprising them” (Yissum Research Development Company of the Hebrew …, priority 2014, dated 2019)

Experiments:
CT-26-luc cell line = assay: MTT antiproliferative assay; assay type: cell-based, murine; settings: 120 h incubation
A2780-cisR cell line = assay: MTT cytotoxicity assay; assay type: cell-based; settings: for IC50: cisplatin resistant line; for RF, resistance factor: ratio of IC50 in A2780-cisR to A2780; for IC50 A2780-cisR: 120 h treatment
Protocol: (§4) To evaluate the efficacy of the various drugs, cells were seeded in a sterile, 24-well plate and incubated in the presence of the drug for 72 h/120 h at 37° C., 5% CO2. The number of cells alive was quantified using (3-(4,5-dimethylthiazol-2-yl)-2,5 diphenyltetrazolium bromide) (MTT) assay. The cells were incubated for 2 h with MTT, DMSO was added to dissolve the crystals and the plates were measured at 540 nm. Viability (%) graphs were constructed relative to the control of every assay. The data were plotted in a graph, lines connected the points, and the values were determined from the interpolated graph.

SKOV-3 cell line = assay: MTT cytotoxicity assay; settings: for IC50 SKOV-3: 120 h treatment; for IC50: read-out: IC50 SKOV-3, 120 h incubation
Protocol: (§5) The in vitro experiments were performed in cell lines of lung cancer (A549), prostate cancer (DU145 and PC-3), pancreatic cancer (BxPC-3) and ovarian cancer (SKOV-3 and OVCAR-8). A549, BxPC-3 and OVCAR-8 cells were grown in RPMI medium supplemented with 10% fetal bovine serum (Gibco), 1% L-glutamine, 100 U/ml penicillin, 100 ug/ml streptomycin and 0.13% w/w gentamycin. PC-3 cells were cultured in DMEM plus 10% fetal bovine serum, 1% L-glutamine, 100 U/ml penicillin, 100 μg/ml streptomycin and 1% pyrovate. DU145 cells were grown in RPMI1640 medium supplemented with 10% fetal bovine serum, 100 U/ml penicillin, and 100 ug/ml streptomycin. SKOV-3 cells were cultured McCoy's 5A medium supplemented with 10% fetal bovine serum, 100 U/ml penicillin, and 100 ug/ml streptomycin. The cell lines were maintained at 37° C. under 5% CO2. […] The drugs were dissolved in DMSO and were added to the appropriate medium. Drug concentrations were chosen in a range that would never expose cells to more than 0.5% DMSO i.e. for 50 μg/ml maximal concentration; 0.5 mg of OXA-PAL-ACT was dissolved in 50 μl DMSO and then added to 10 ml cell medium.
as §4
(§6) The cells were treated continuously for 120 h.

PC-3 cell line = assay: MTT cytotoxicity assay; settings: for IC50 PC-3: 120 h treatment; for IC50: read-out: IC50 PC-3, 120 h incubation
Protocol: as §5, §4, §6

PC-3 LUC cell line = assay: MTT cytotoxicity assay; settings: for IC50 PC-3 LUC: 120 h treatment; for IC50: read-out: IC50 PC-3-luc, 120 h incubation
Protocol: as §4, §6

[1] = Log P determination, shake flask method; settings: n-octanol and water
Protocol: The partition coefficient of the new Pt compounds was determined in n-octanol and water by shake flask method.

A2780 cell line = assay: MTT cytotoxicity assay; assay type: cell-based; settings: for IC50: cisplatin sensitive parent line; for IC50 A2780: 120 h treatment
Protocol: as §4

BxPC-3 cell line = assay: MTT cytotoxicity assay; settings: for IC50 BXPC-3: 120 h treatment; for IC50: read-out: IC50 BxPC-3, 120 h incubation
Protocol: as §5, §4, §6

[2] = Reduction potentials by cyclic voltammetry; assay type: physicochemical; settings: versus Ag/AgCl
OVCAR-8 cell line = assay: MTT cytotoxicity assay; settings: for IC50 OVCAR-8: 120 h treatment; for IC50: read-out: IC50 OVCAR-8, 120 h incubation
Protocol: as §5, §4, §6

BxPc-3-luc2 cell line = assay: MTT antiproliferative assay; assay type: cell-based, human
Protocol: (§1) The antiproliferative activities of the novel compound (free and incorporated in NPs) and OXA were determined in HCT 116-luc2 (human colorectal cancer) and BxPc-3-luc2 (human pancreatic cancer) cell lines by the MTT assay.

HCT 116-luc2 cell line = assay: MTT antiproliferative assay; assay type: cell-based, human
Protocol: as §1

BxPc-3-luc2 tumor = assay: Pancreatic carcinoma mouse model, bioluminescent imaging; assay type: in vivo, SCID-bg mice; settings: i.v. once a week, 4 treatments
Excerpt: 5-6 weeks-old SCID mice were inoculated subcutaneously with 2×10^6 BxPC-3-luc cells.
Pancreatic tumors were induced by subcutaneous injection of the luciferase-transfected pancreas adenocarcinoma cells, BxPc-3-luc2, to SCID-bg mice. Tumor development and progression was validated by bioluminescent imaging. On the eighth day following tumor cells injection, a four-treatment cycle (intravenous route) was initiated (once a week).

[3] = for body weight variation over time: OXA 5 mg/kg, OXA-PAL-ACT 15 mg/kg i.v. once a week; for maximum tolerated dose: i.v., solution
HCT-15 cell line = assay: MTT cytotoxicity assay; assay type: cell-based; settings: 120 h treatment
Protocol: as §4

A375 cell line = assay: MTT cytotoxicity assay; assay type: cell-based; settings: 120 h treatment
Protocol: as §4

A498 cell line = assay: MTT cytotoxicity assay; assay type: cell-based; settings: 120 h treatment
Protocol: as §4

A549 cell line = assay: MTT cytotoxicity assay; assay type: cell-based; settings: 120 h treatment
Protocol: A549, BxPC-3 and OVCAR-8 cells were grown in RPMI medium supplemented with 10% fetal bovine serum (Gibco), 1% L-glutamine, 100 U/ml penicillin, 100 ug/ml streptomycin and 0.13% w/w gentamycin. […] The cell lines were maintained at 37° C. under 5% CO2. All cell culture products were obtained from Biological Industries (Beit HaEmek, Israel). The drugs were dissolved in DMSO and were added to the appropriate medium. Drug concentrations were chosen in a range that would never expose cells to more than 0.5% DMSO i.e. for 50 μg/ml maximal concentration; 0.5 mg of OXA-PAL-ACT was dissolved in 50 μl DMSO and then added to 10 ml cell medium.
as §4

SKOV-3 cells = assay: DNA platination by ICP-MS; assay type: cell-based, human; settings: 24 h exposure, 25 μg/ml
Protocol: (§2) Following incubation, the drug-containing medium was removed, and cells were rinsed twice with cold PBS, trypsinized and were centrifuged into a pellet (4400 rpm, 5 min). 500 μl of nitric acid was added to cell pellets, and overnight incubated at 70° C. The samples were prepared by dilution using 0.1% SDS and 1% nitric acid lysis solution, and analyzed for Pt content by ICP-MS. DNA was isolated and purified from cell lines with the DNeasy Blood and Tissue Kit (Qiagen).

SKOV-3 luc tumor = assay: Ovarian carcinoma mouse model, bioluminescent imaging; assay type: in vivo, SCID mice; settings: from day 60; 15 mg/kg i.v. once a week, 4 treatments
Protocol: For induction of an ovarian carcinoma mouse model, 5-6 weeks-old severe combined immunodeficiency (SCID) mice, divided into 4 groups, were injected with 2×10^6 SKOV-3 luc cells directly into intraperitoneal cavity (i.p.). The cells were suspended in 100 μl PBS.
All treatments were given in an identical treatment regimen.

[4] = system: RASM (Rat Aortic Smooth Muscle cells); settings: non-cancer Rat Aortic Smooth Muscle cells
Excerpt: (§3) HaCaT cell line monolayer representing human keratinocytes, RASM line monolayer representing Rat Aortic Smooth Muscle cells.

HaCaT cell line = settings: non-cancer human keratinocytes
Excerpt: as §3

HCT-116-luc2 tumor = assay: Colon cancer mouse model, bioluminescent imaging; assay type: in vivo, SCID-bg mice; settings: 33 days from inoculation; 9 mg/kg OPA equivalent to 5 mg/kg OXA, i.v. every fourth day
Protocol: 5-6 weeks-old SCID mice were inoculated subcutaneously with 1×10^6 HCT-116-luc2 cells. 1 day following tumor inoculation, treatment was initiated. Treatment was administered once every fourth day by i.v. injection (tail), 4 treatments in total.
Results are presented as mean±SEM. […] In fact equivalent doses were […] since 9 mg/kg OPA is equivalent to 5 mg/kg OXA.

[5] = system: SKOV-3 and SKOV-3-luc cells; assay: Whole-cell Pt accumulation (cellular uptake) by ICP-MS; assay type: cell-based, human; settings: 24 h exposure, 5, 15, 25 μg/ml
Protocol: as §2
Cellular accumulation of platinum is a key step in cellular platinum drug pharmacology.

Row | Structure (SMILES) | IC50 (CT-26-luc cell line) [nM] | IC50 (A2780-cisR cell line) [nM] | RF, resistance factor (A2780-cisR cell line) | IC50 SKOV-3 (SKOV-3 cell line) | IC50 (SKOV-3 cell line) [nM] | IC50 PC-3 (PC-3 cell line) [µg/mL] | IC50 (PC-3 cell line) [nM] | IC50 PC-3 LUC (PC-3 LUC cell line) [µg/mL] | IC50 (PC-3 LUC cell line) [nM] | Measured logP [1] | IC50 (A2780 cell line) [nM] | IC50 BXPC-3 (BxPC-3 cell line) [µg/mL] | IC50 (BxPC-3 cell line) [nM] | Ep, reduction potential [2] [V] | IC50 OVCAR-8 (OVCAR-8 cell line) [µg/mL] | IC50 (OVCAR-8 cell line) [nM] | IC50 HCT-15 (HCT-15 cell line) [µg/mL] | IC50 A375 (A375 cell line) [µg/mL] | IC50 A498 (A498 cell line) [µg/mL] | IC50 A549 (A549 cell line) [µg/mL] | also measured
1 | CCCCCCCCCCCCCCCC(=O)[O][Pt]1([O]C(=O)CCCCCCCCCCCCCCC)[O]C(=O)C(=O)[O]1.NC1CCCCC1N [OXADP, oxaliplatin dipalmitate] | > 55000 | > 55000 | >7.3 | N.D* (N.D—Not Determined (The IC50 value is higher than maximal tested concentration-50 μg/ml)) | > 55000 | 2.20 ± 1.21 | 2420 ± 1330 | 21.35 ± 19.30 | 23500 ± 21200 | 3.49 | 7500 ± 500 | 24.07 ± 12.96 | 26500 ± 14300 | −0.53 ± 0.02 | 16 ± 3.12 | 17600 ± 3430 | – | – | – | – | –
2 | O=C1[O][Pt]2([NH][C@@H]3CCCC[C@H]3[NH]2)[O]C1=O [Oxaliplatin, reference compound] | 5600 ± 600 | 4100 ± 250 | – | 32.5 ± 3.54 µg/mL | 58300 ± 6340 | 3.63 ± 0.15 | 9160 ± 370 | 11 ± 3.60 | 27700 ± 9050 | – | 780 ± 20 | 1.35 ± 0.35 | 3380 ± 870 | – | 3.75 ± 1.77 | 9440 ± 4440 | – | – | – | – | IC50 A2780-cisR (A2780-cisR cell line): 1.63 ± 0.11 µg/mL; IC50 (BxPc-3-luc2 cell line): 62700 ± 2520 nM; IC50 (HCT 116-luc2 cell line): 2300 ± 1080 nM; IC50 A2780 (A2780 cell line): 0.31 µg/mL; pancreatic tumor growth inhibition (BxPc-3-luc2 tumor): did not show any efficacy; body weight variation over time [3]: marked weight reduction; maximum tolerated dose [3]: 5 mg/kg
3 | N.N.[Cl][Pt][Cl] [Cisplatin, cisplatin, reference compound] | – | 14600 ± 1440 | 15.53 | – | – | – | – | – | – | – | 940 ± 40 | – | – | – | – | – | 11.32 | 3.75 ± 1.77 | 17.53 | 8.35 | –
4 | CCCCCCCCCCCCCCCC(=O)[O][Pt]12([O]C(C)=O)([NH]C3CCCCC3[NH]1)[O]C(=O)C(=O)[O]2 (centres unmarked) [OXA-PAL-ACT, oxaliplatin palmitate acetate] | 620 ± 240 | 340 ± 10 | 0.93 | 0.39 ± 0.02 µg/mL | 540 ± 30 | 0.25 ± 0.01 | 350 ± 10 | 0.33 ± 0.08 | 460 ± 110 | 2.06 | 360 ± 10 | 0.25 ± 0.01 | 350 ± 10 | −0.54 ± 0.02 | 0.33 ± 0.03 | 460 ± 30 | 0.43 | 0.16 | 0.20 | 0.34 | nucleus DNA platination (SKOV-3 cells): higher DNA-platination; IC50 A2780-cisR (A2780-cisR cell line): 0.24 µg/mL; resistance factor (A2780-cisR cell line; calculated from IC50 values of dose-response curves, A2780-cisR vs A2780 (FIG. 10)): 1; tumor growth (bioluminescence) efficacy (SKOV-3 luc tumor): more efficient that OXA; IC50 (BxPc-3-luc2 cell line): 310 ± 90 nM; IC50 (HCT 116-luc2 cell line): 370 ± 20 nM; therapeutic ratio in RASM [4]: > 2; therapeutic ratio in HaCaT (HaCaT cell line): higher than 1.8; observed Log P ([1]; n=5): 2.76±0.14; IC50 A2780 (A2780 cell line): 0.26 µg/mL; tumor growth inhibition (HCT-116-luc2 tumor): no significant efficacy difference; pancreatic tumor growth inhibition (BxPc-3-luc2 tumor): significantly more efficient in pancreatic tumor growth inhibition compared to OXA and the control; cellular accumulation of platinum [5]: substantially higher compared to that of oxaliplatin; body weight variation over time [3]: did not reduce the animal weight; maximum tolerated dose [3]: 15 mg/kg
5 | CCCCCCCCCCCCCCCC(=O)[O][Pt]1([O]C(=O)CCC(=O)O)[O]C(=O)C(=O)[O]1.NC1CCCCC1N [OXA-PAL-SUCC] | 4430 ± 930 | 1900 ± 200 | 4.13 | 20.67 ± 15.88 µg/mL | 26800 ± 20600 | 0.35 ± 0.01 | 450 ± 10 | 0.78 ± 0.88 | 1010 ± 1130 | 2.07 | 460 ± 10 | 1.23 ± 1.18 | 1590 ± 1520 | −0.60 ± 0.01 | 2.83 ± 0.38 | 3670 ± 490 | 0.35 | 0.19 | 0.24 | 0.45 | –
